# Results reported in US8329645B2, “Polymyxin derivatives and uses thereof” (priority 2008, dated 2012).
# What was measured:
# P. aeruginosa ATCC 27853 = assay: E-test MIC of antibiotics on Mueller Hinton agar containing increasing concentrations of NAB739; assay type: cell-based, Pseudomonas aeruginosa
# E. cloacae CCUG52947 = assay: E-test MIC with or without NAB7061 (4 μg/ml), Mueller-Hinton agar; assay type: cell-based, Enterobacter cloacae
# How it was run: (§1)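 Strips carrying an antibiotic concentration gradient were placed on inoculated plates following the supplier's directions, and the MIC was then recorded.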
# E. cloacae F232 = assay: as above; assay type: cell-based, Enterobacter cloacae
# How it was run: as §1
# E. cloacae F230 = assay: as above; assay type: cell-based, Enterobacter cloacae
# How it was run: as §1
# E. cloacae ATCC23355 = assay: as above; assay type: cell-based, Enterobacter cloacae
# How it was run: as §1
# A. baumannii ATCC19606 = assay: E-test MIC of antibiotics on Mueller Hinton agar containing increasing concentrations of NAB739; assay type: cell-based, Acinetobacter baumannii
# S. maltophilia ATCC17444 = assay: E-test MIC with or without NAB7061 (4 μg/ml), Mueller-Hinton agar; assay type: cell-based
# Protocol: (§2) MICs were determined by using E-strips (Biodisk Ltd., Solna, Sweden) according to the manufacturer's instructions.
# (§3) The strains originated from ATCC (11 strains), CCUG (11 strains), and NCTC (The National Collection of Type Cultures, Colindale, U.K.; 2 strains). Eight strains (the F-strains) were purchased from Mobidiag Ltd., Helsinki, Finland.
# P. vulgaris ATCC13315 = assay: as above; assay type: cell-based
# Protocol: as §2, §3
# K. oxytoca ATCC13182 = assay: as above; assay type: cell-based, Klebsiella oxytoca
# Protocol: as §2, §3
# K. oxytoca CCUG51683 = assay: as above; assay type: cell-based, Klebsiella oxytoca
# Protocol: as §2, §3
# P. mirabilis ATCC29906 = assay: as above; assay type: cell-based, Proteus mirabilis
# Protocol: as §2, §3
# S. marcescens ATCC8100 = assay: as above; assay type: cell-based, Serratia marcescens
# Protocol: as §2, §3
# P. aeruginosa ATCC27853 = assay: as above; assay type: cell-based, Pseudomonas aeruginosa
# Protocol: as §2, §3
# P. aeruginosa CCUG51971 = assay: as above; assay type: cell-based, Pseudomonas aeruginosa
# Protocol: as §2, §3
# A. baumannii F264 = assay: E-test MIC of antibiotics on Mueller Hinton agar containing increasing concentrations of NAB739; assay type: cell-based, Acinetobacter baumannii
# C. freundii ATCC8090 = assay: E-test MIC with or without NAB7061 (4 μg/ml), Mueller-Hinton agar; assay type: cell-based, Citrobacter freundii
# Protocol: as §2, §3
# [1] = system: three strains of A. baumannii; assay: E-test sensitization by NAB7061, summary over strains; assay type: cell-based; settings: Acinetobacter baumannii, read-out: resulting MIC values in the presence of NAB7061 (4 μg/ml)
# Text: as §3
# Ac. baumannii ATCC19606 = assay: E-test MIC with or without NAB7061 (4 μg/ml), Mueller-Hinton agar; assay type: cell-based, Acinetobacter baumannii; settings: Ac. baumannii ATCC19606
# Protocol: as §2, §3
# Ac. baumannii F263 = assay: as above; assay type: cell-based, Acinetobacter baumannii; settings: Ac. baumannii F263
# Protocol: as §2, §3
# Ac. baumannii F264 = assay: as above; assay type: cell-based, Acinetobacter baumannii; settings: Ac. baumannii F264
# Protocol: as §2, §3
# K. pneumoniae ATCC13883 = settings: K. pneumoniae ATCC13883
# How it was run: as §1
# E. coli ATCC25922 = settings: E. coli ATCC25922
# How it was run: as §1
# K. pneumoniae F144 = assay: E-test MIC with or without NAB7061 (4 μg/ml), Mueller-Hinton agar; assay type: cell-based, Klebsiella pneumoniae
# Protocol: as §2, §3
# K. pneumoniae F145 = assay: as above; assay type: cell-based, Klebsiella pneumoniae
# Protocol: as §2, §3
# K. pneumoniae CCUG45421 = assay: as above; assay type: cell-based, Klebsiella pneumoniae
# Protocol: as §2, §3
# K. pneumoniae F136 = assay: as above; assay type: cell-based, Klebsiella pneumoniae
# Protocol: as §2, §3
# E. coli CCUG41429 = assay: as above; assay type: cell-based, Escherichia coli
# How it was run: as §1
# E. coli IH3080 = assay: as above; assay type: cell-based, Escherichia coli
# How it was run: as §1
# E. coli CCUG41425 = assay: as above; assay type: cell-based, Escherichia coli
# How it was run: as §1
# E. coli CCUG41427 = assay: as above; assay type: cell-based, Escherichia coli
# How it was run: as §1
# E. coli NCTC13351 = assay: as above; assay type: cell-based, Escherichia coli
# How it was run: as §1
# E. coli CCUG41424 = assay: as above; assay type: cell-based, Escherichia coli
# How it was run: as §1
# E. coli CCUG41421 = assay: as above; assay type: cell-based, Escherichia coli
# How it was run: as §1
# E. coli CCUG41422 = assay: as above; assay type: cell-based, Escherichia coli
# How it was run: as §1
# E. coli NCTC13353 = assay: as above; assay type: cell-based, Escherichia coli
# How it was run: as §1
# E. coli CCUG41432 = assay: as above; assay type: cell-based, Escherichia coli
# How it was run: as §1
structure (smiles),measurement,setting,value
CC[C@H]1OC(=O)[C@H](C)[C@@H](O[C@H]2C[C@@](C)(OC)[C@@H](O)[C@H](C)O2)[C@H](C)[C@@H](O[C@@H]2O[C@H](C)C[C@H](N(C)C)[C@H]2O)[C@](C)(OC)C[C@@H](C)C(=O)[C@H](C)[C@@H](O)[C@]1(C)O [Clarithromycin],MIC of antibiotic in the presence of NAB739,P. aeruginosa ATCC 27853; NAB 739 0 μg/ml,48 µg/mL
same,MIC of antibiotic in the presence of NAB739,P. aeruginosa ATCC 27853; NAB 739 0.5 μg/ml,16 µg/mL
same,MIC of antibiotic in the presence of NAB739,P. aeruginosa ATCC 27853; NAB 739 1 μg/ml,12 µg/mL
same,MIC of antibiotic in the presence of NAB739,P. aeruginosa ATCC 27853; NAB 739 2 μg/ml,3 µg/mL
same,MIC of antibiotic in the presence of NAB739,P. aeruginosa ATCC 27853; NAB 739 […],32 µg/mL
same,MIC of antibiotic in the presence of 4 μg/ml of NAB 7061,E. cloacae CCUG52947,0.38 µg/mL
same,MIC of antibiotic in the presence of 4 μg/ml of NAB 7061,E. cloacae F232,0.094 µg/mL
same,MIC of antibiotic in the presence of 4 μg/ml of NAB 7061,E. cloacae F230,0.047 µg/mL
same,MIC of antibiotic in the presence of 4 μg/ml of NAB 7061,E. cloacae ATCC23355,0.25 to 0.75 µg/mL
same,MIC of antibiotic in the presence of NAB739,A. baumannii ATCC19606; NAB 739 0 μg/ml,8 µg/mL
same,MIC of antibiotic in the presence of NAB739,A. baumannii ATCC19606; NAB 739 0.5 μg/ml,0.5 µg/mL
same,MIC of antibiotic in the presence of NAB739,A. baumannii ATCC19606; NAB 739 1 μg/ml,0.094 µg/mL
same,MIC of antibiotic in the presence of 4 μg/ml of NAB 7061,S. maltophilia ATCC17444,64 µg/mL
same,MIC of antibiotic in the presence of 4 μg/ml of NAB 7061,P. vulgaris ATCC13315,24 µg/mL
same,MIC of antibiotic in the presence of 4 μg/ml of NAB 7061,K. oxytoca ATCC13182,0.25 µg/mL
same,MIC of antibiotic in the presence of 4 μg/ml of NAB 7061,K. oxytoca CCUG51683,0.19 µg/mL
same,MIC of antibiotic in the presence of 4 μg/ml of NAB 7061,P. mirabilis ATCC29906,24 µg/mL
same,MIC of antibiotic in the presence of 4 μg/ml of NAB 7061,S. marcescens ATCC8100,96 µg/mL
same,MIC of antibiotic in the presence of 4 μg/ml of NAB 7061,P. aeruginosa ATCC27853,32 µg/mL
same,MIC of antibiotic in the presence of 4 μg/ml of NAB 7061,P. aeruginosa CCUG51971,64 µg/mL
same,MIC of antibiotic in the presence of NAB739,A. baumannii F264; NAB 739 0 μg/ml,6 µg/mL
same,MIC of antibiotic in the presence of NAB739,A. baumannii F264; NAB 739 0.5 μg/ml,0.5 µg/mL
same,MIC of antibiotic in the presence of NAB739,A. baumannii F264; NAB 739 1 μg/ml,0.125 µg/mL
same,MIC of antibiotic in the presence of 4 μg/ml of NAB 7061,C. freundii ATCC8090,0.125 µg/mL
same,MIC,[1],≤ 0.5 µg/mL
same,MIC of antibiotic in the presence of 4 μg/ml of NAB 7061,Ac. baumannii ATCC19606,0.5 µg/mL
same,MIC of antibiotic in the presence of 4 μg/ml of NAB 7061,Ac. baumannii F263,0.38 µg/mL
same,MIC of antibiotic in the presence of 4 μg/ml of NAB 7061,Ac. baumannii F264,0.25 µg/mL
same,MIC of antibiotic in the presence of 4 μg/ml of NAB 7061,K. pneumoniae ATCC13883,0.19 µg/mL
same,MIC of antibiotic in the presence of 4 μg/ml of NAB 7061,E. coli ATCC25922,0.094 to 0.125 µg/mL
same,MIC of antibiotic in the presence of 4 μg/ml of NAB 7061,K. pneumoniae F144,0.75 µg/mL
same,MIC of antibiotic in the presence of 4 μg/ml of NAB 7061,K. pneumoniae F145,0.25 µg/mL
same,MIC of antibiotic in the presence of 4 μg/ml of NAB 7061,K. pneumoniae CCUG45421,24 µg/mL
same,MIC of antibiotic in the presence of 4 μg/ml of NAB 7061,K. pneumoniae F136,2 µg/mL
same,MIC of antibiotic in the presence of 4 μg/ml of NAB 7061,E. coli CCUG41429,0.064 µg/mL
same,MIC of antibiotic in the presence of 4 μg/ml of NAB 7061,E. coli IH3080,0.047 to 0.064 µg/mL
same,MIC of antibiotic in the presence of 4 μg/ml of NAB 7061,E. coli CCUG41425,0.047 µg/mL
same,MIC of antibiotic in the presence of 4 μg/ml of NAB 7061,E. coli CCUG41427,0.064 µg/mL
same,MIC of antibiotic in the presence of 4 μg/ml of NAB 7061,E. coli NCTC13351,0.032 µg/mL
same,MIC of antibiotic in the presence of 4 μg/ml of NAB 7061,E. coli CCUG41424,0.125 µg/mL
same,MIC of antibiotic in the presence of 4 μg/ml of NAB 7061,E. coli CCUG41421,0.125 µg/mL
same,MIC of antibiotic in the presence of 4 μg/ml of NAB 7061,E. coli CCUG41422,0.25 µg/mL
same,MIC of antibiotic in the presence of 4 μg/ml of NAB 7061,E. coli NCTC13353,1 µg/mL
same,MIC of antibiotic in the presence of 4 μg/ml of NAB 7061,E. coli CCUG41432,0.064 µg/mL
